# From patent US20090203877A1, “X-RAY-DENSE CONJUGATE” (Eberhard-Karls-Universitaet Tuebingen Universitaetsklinkum, priority 2006, published 2009)
# Entries after “also recorded” stand apart in the source; their conditions may differ.
# System: human malignant U373 glioma cells
# Test: Uptake/staining of cells by FITC-labelled conjugates (fluorescence microscopy, CLSM, FACS, semi-thin sections)
# Type: cell-based
# Conditions: for strongly labeled (heavily stained) cells, FACS: 20 min incubation; for stained cells: 260 μM in PBS, 20 min (experiments with conjugates 9-15)
# Method: Fluorescence was measured in a Becton Dickinson FACSCalibur. […] The investigations were performed in triplicate.
# For CT and FACS human U373 glioma cells were grown under the same conditions in 75 cm^2 culture flasks (Corning Costar, Bodenheim, Germany) (70% confluency). Accutase™ (PAA laboratories, Pasching, Austria) was added to achieve detachment of the cells which were harvested and subsequently aliquoted into Eppendorf tubes (6×10^6 cells per tube). As in the investigations performed by fluorescence microscopy, the cells in the first tube served as a control (PBS only). The cells in the other tubes were incubated with 260 μM Ultravist, 260 μM TIBA in PBS and 26 μM, 260 μM and 2.6 mM conjugates 1-4 in PBS. After a 20 minute incubation period at 37° C. in an atmosphere of 5% CO2, the cells were washed three times in PBS and centrifuged at 800 rpm for 5 minutes.
# The FACS analysis was performed as described under 1.4.
# The human malignant U373 and LN18 glioma cells were cultivated in 75 cm^2 culture flasks (Corning Costar) (70% confluency) under the conditions as described under 1.4, detached from the flask bottom with Accutase™ (PAA Laboratories) and in the following distributed on Eppendorf tubes (Eppendorf, Hamburg, Germany) (6×10^6 per tube). The cells in the first tube serve as a control (only PBS buffer only). The cells in the other ten tubes were each incubated with benzoic acid (BA), monoiodobenzoic acid (MIBA) or diiodobenzoic acid (DIBA) alone (260 μM), conjugate 3 alone (260 μM), conjugate 3 plus either BA, MIBA or DIBA (260 μM), respectively, and the conjugates 9, 10, and 11 alone. (260 μM).
# After an incubation of 20 minutes at 37° C./5% CO2 the cells were washed three times with PBS buffer and centrifuged at 800 rpm (rounds per minute) for 5 minutes. The fluorescence was measured in Becton Dickinson FACSCalibur as described under 1.4. The computer tomography was performed as described under 1.5.1. The examinations were repeated two times.
# For the CT and FACS examinations human LN-18 and U373 glioma cells were cultivated in 75 cm^2 culture flasks (Corning Costar) (70% confluency) (conditions as described under 1.4). Accutase™ (PAA Laboratories) was added to detach the cells from the bottom of the culture flasks. The cells were collected and then distributed on Eppendorf tubes (6×10^6 cells per tube). The cells in the first two tubes serve as a control (in each case only PBS, LN18 and U373 glioma cells, native). The cells in the other tubes (in each case LN18 and U373 glioma cells) were incubated with a 260 μM or 2.6 mM solution of the conjugate 12 for 20 minutes at 37° C. and 5% CO2 and in the following washed for three times with PBS buffer and centrifuged for 5 minutes with 800 rpm (rounds per minute). For a small amount of the cells it was tested by the MMT test (see 1.4) how many of the cells were still viable. The computer tomography of the cell centrifuges was performed with the Somatom Sensation 16 (Siemens).
# The FACS analysis was performed as described under 1.4. The assay was repeated two times.
# For the CT and FACS examinations human LN18 and U373 glioma cells were cultivated in 75 cm^2 culture flasks (70% confluency) (conditions as described under section 1). Accutase™ (PAA Laboratories) was added to detach the cell from the culture bottom. The cells were collected and then distributed on Eppendorf-tubes (6×10^6 cells per tube). […] The next three tubes were used for the coincubation of the cells either with trichlorobenzoic acid (TCBA), trifluorobenzoic acid (TFBA) or tribromophenyl Isocyanat (TBPI) and the NLS-FITC-conjugate 3 (260 μM). As control cells were used which were only either incubated with CIBA, FIBA, TBPI (in each case 260 μM in PBS) or with PBS-buffer (native control) alone. […] The computer tomography and FACS analysis of the cell centrifuges were performed as described in 1.5.1 or 1.4, respectively for three times. […]
Substance,"strongly labeled (heavily stained) cells, FACS (26 μM) [%]",stained cells [%],"strongly labeled (heavily stained) cells, FACS (260 μM) [%]","strongly labeled (heavily stained) cells, FACS (2.6 mM) [%]",number of stained cells / cellular staining rate (conjugate co-incubated with free TIBA (260 μM)),staining of cell nuclei (CLSM overview) (260 μM),staining of nucleoli in semi-thin sections (about 0.4 μm) (fluorescence microscopy after incubation)
"PKKKRKVK(FITC)GGK (FITC, GGK linker) [conjugate 3, FITC-labelled correct NLS of the SV 40 T antigen without TIBA]",6,8,7,10,not associated with a higher cellular staining rate; also recorded: did not result in any changes,,
"PKKKRKVK(FITC)GGK(BA) (FITC, GGK linker, benzoic acid) [conjugate 9, FITC-labelled NLS of the SV 40 T antigen with non-iodized benzoic acid]",,8,,,,,
"PKKKRKVK(FITC)GGK(TIBA) (FITC, GGK linker, TIBA) [conjugate 1, FITC-labelled correct NLS of the SV 40 T antigen with TIBA]",32,,32,93,,A very large number of cell nuclei has been stained,clearly stained
